Assays:
corn = assay: Test E preemergence; assay type: in vivo, Zea mays; conditions: for Corn plant response rating: scale 0 to 100 (0 no effect, 100 complete control); for Plant response rating, Corn: scale 0 to 100, 0 no effect, 100 complete control
Procedure, shortened: (§1)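 Test chemicals formulated in a non-phytotoxic solvent mixture containing a surfactant were applied preemergence to seeds in silt loam soil or postemergence to plants at the 1- to 4-leaf stage in potting mix. After 14 to 21 days in a greenhouse, injury was visually rated against controls on a 0-100 scale (0 = no effect, 100 = complete control).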

wild poinsettia = assay: Test E preemergence; assay type: in vivo, Euphorbia heterophylla; conditions: for Poinsettia, Wild plant response rating: scale 0 to 100 (0 no effect, 100 complete control); for Plant response rating, Poinsettia, Wild: scale 0 to 100, 0 no effect, 100 complete control
Procedure, shortened: as §1

palmer pigweed = assay: Test E preemergence; assay type: in vivo, Amaranthus palmeri; conditions: for Pigweed, Palmer plant response rating: scale 0 to 100 (0 no effect, 100 complete control); for Plant response rating, Pigweed, Palmer: scale 0 to 100, 0 no effect, 100 complete control
Procedure, shortened: as §1

waterhemp = assay: Test E preemergence; assay type: in vivo, Amaranthus rudis; conditions: for Waterhemp plant response rating: scale 0 to 100 (0 no effect, 100 complete control); for Plant response rating, Waterhemp: scale 0 to 100, 0 no effect, 100 complete control
Procedure, shortened: as §1

large (Lg) crabgrass = assay: Test E preemergence; assay type: in vivo, Digitaria sanguinalis; conditions: for Crabgrass, Large plant response rating: scale 0 to 100 (0 no effect, 100 complete control); for Plant response rating, Crabgrass, Large: scale 0 to 100, 0 no effect, 100 complete control
Procedure, shortened: as §1

goosegrass = assay: Test E preemergence; assay type: in vivo, Eleusine indica; conditions: for Goosegrass plant response rating: scale 0 to 100 (0 no effect, 100 complete control); for Plant response rating, Goosegrass: scale 0 to 100, 0 no effect, 100 complete control
Procedure, shortened: as §1

sandbur = assay: Test E preemergence; assay type: in vivo, Cenchrus echinatus; conditions: for Sandbur plant response rating: scale 0 to 100 (0 no effect, 100 complete control); for Plant response rating, Sandbur: scale 0 to 100, 0 no effect, 100 complete control
Procedure, shortened: as §1

yellow nutsedge = assay: Test E preemergence; assay type: in vivo, Cyperus esculentus; conditions: for Nutsedge, Yellow plant response rating: scale 0 to 100 (0 no effect, 100 complete control); for Plant response rating, Nutsedge, Yellow: scale 0 to 100, 0 no effect, 100 complete control
Procedure, shortened: as §1

soybean = assay: Test E postemergence; assay type: in vivo, Glycine max; conditions: for plant response (crop injury) rating, soybean, 0-100 scale at 31 g/ha / plant response (crop injury) rating, soybean, 0-100 scale at 62 g/ha / plant response (crop injury) rating, soybean, 0-100 scale at 125 g/ha / plant response (crop injury) rating, soybean, 0-100 scale at 16 g/ha: Glycine max, post-emergence
Procedure, shortened: as §1

fall panicum = assay: Test E postemergence; assay type: in vivo, Panicum dichotomiflorum; conditions: for pest or weed control at 31 g/ha / pest or weed control at 62 g/ha / pest or weed control at 125 g/ha / pest or weed control at 16 g/ha: Panicum dichotomiflorum, post-emergence, read-out: Plant response rating, Panicum, Fall
Procedure, shortened: as §1

ragweed = assay: Test E postemergence; assay type: in vivo, Ambrosia elatior
From the text: Seeds of plant species selected from corn (Zea mays), soybean (Glycine max), velvetleaf (Abutilon theophrasti), lambsquarters (Chenopodium album), wild poinsettia (Euphorbia heterophylla), palmer pigweed (Amaranthus palmeri), waterhemp (common waterhemp, Amaranthus rudis), surinam grass (Brachiaria decumbens), large (Lg) crabgrass (Digitaria sanguinalis), Brazilian crabgrass (Digitaria horizontalis), fall panicum (Panicum dichotomiflorum), giant foxtail (Setaria faberii), green foxtail (Setaria viridis), goosegrass (Eleusine indica), johnsongrass (Sorghum halepense), ragweed (common ragweed, Ambrosia elatior), barnyardgrass (Echinochloa crus-galli), sandbur (southern sandbur, Cenchrus echinatus), arrowleaf sida (Sida rhombifolia), Italian ryegrass (Lolium multiflorum), dayflower (Virginia (VA) dayflower, Commelina virginica), field bindweed (Convolvulus arvensis), morningglory (Ipomoea coccinea), nightshade (eastern black nightshade, Solanum ptycanthum), kochia (Kochia scoparia), yellow nutsedge (Cyperus esculentus), cocklebur (common cocklebur, Xanthium strumarium), smartweed (ladysthumb smartweed, and hairy beggarticks (Bidens pilosa), were planted into a silt loam soil and treated preemergence with test chemicals formulated in a non-phytotoxic solvent mixture which included a surfactant.
At the same time, plants from these crop and weed species and also horseweed (Canada horseweed, Conyza canadensis), waterhemp_RES1, (ALS & Triazine resistant common waterhemp, Amaranthus rudis), and waterhemp_RES2, (ALS & HPPD resistant common waterhemp, Amaranthus rudis) were planted in pots containing Redi-Earth® planting medium (Scotts Company, 14111 Scottslawn Road, Marysville, Ohio 43041) comprising spaghnum peat moss, vermiculite, wetting agent and starter nutrients were treated with postemergence applications of test chemicals formulated in the same manner. Plants ranged in height from 2 to 18 cm for postemergence treatments (1- to 4-leaf stage). Treated plants and controls were maintained in a greenhouse for 14 to 21 days, after which time all species were compared to controls and visually evaluated. Plant response ratings, summarized in Table E, are based on a scale of 0 to 100 where 0 is no effect and 100 is complete control. A dash (-) response means no test result.

barnyardgrass = assay: Test E postemergence; assay type: in vivo, Echinochloa crus-galli; conditions: for pest or weed control at 31 g/ha / pest or weed control at 62 g/ha / pest or weed control at 125 g/ha / pest or weed control at 16 g/ha: Echinochloa crus-galli, post-emergence, read-out: Plant response rating, Barnyardgrass
Procedure, shortened: as §1

[1] = Postemergence, 31 g ai/ha, scale 0 to 100
[2] = Postemergence, 62 g ai/ha, scale 0 to 100
[3] = Postemergence, 125 g ai/ha, scale 0 to 100
[4] = postemergence, 16 g ai/ha, scale 0 to 100, 0 no effect, 100 complete control

For `N#Cc1cccc(Oc2ncc(Cl)cn2)c1-n1cc(Br)cn1` [Compound 52, 2-(4-bromo-1H-pyrazol-1-yl)-3-[(5-chloro-2-pyrimidinyl)oxy]benzonitrile], the “Corn plant response rating” value (corn; 16 g ai/ha) was 0, the “Corn plant response rating” value (corn; 31 g ai/ha) was 0 and the “Corn plant response rating” value (corn; 62 g ai/ha) was 0. For the same compound, the “Plant response rating, Corn” value (corn; 125 g ai/ha) was 0, the “Plant response rating, Corn” value (corn; 250 g ai/ha) was 40 and the “Poinsettia, Wild plant response rating” value (wild poinsettia; 16 g ai/ha) was 0. The “Poinsettia, Wild plant response rating” value (wild poinsettia; 31 g ai/ha) was 0, the “Poinsettia, Wild plant response rating” value (wild poinsettia; 62 g ai/ha) was 25 and the “Plant response rating, Poinsettia, Wild” value (wild poinsettia; 125 g ai/ha) was 50. For the same compound, the “Plant response rating, Poinsettia, Wild” value (wild poinsettia; 250 g ai/ha) was 100, the “Pigweed, Palmer plant response rating” value (palmer pigweed; 16 g ai/ha) was 25 and the “Pigweed, Palmer plant response rating” value (palmer pigweed; 31 g ai/ha) was 100. For the same compound, the “Pigweed, Palmer plant response rating” value (palmer pigweed; 62 g ai/ha) was 100, the “Plant response rating, Pigweed, Palmer” value (palmer pigweed; 125 g ai/ha) was 100 and the “Plant response rating, Pigweed, Palmer” value (palmer pigweed; 250 g ai/ha) was 100. The “Waterhemp plant response rating” value (waterhemp; 16 g ai/ha) was 80, the “Waterhemp plant response rating” value (waterhemp; 31 g ai/ha) was 100 and the “Waterhemp plant response rating” value (waterhemp; 62 g ai/ha) was 100. For the same compound, the “Plant response rating, Waterhemp” value (waterhemp; 125 g ai/ha) was 100, the “Plant response rating, Waterhemp” value (waterhemp; 250 g ai/ha) was 100 and the “Crabgrass, Large plant response rating” value (large (Lg) crabgrass; 16 g ai/ha) was 0. The “Crabgrass, Large plant response rating” value (large (Lg) crabgrass; 31 g ai/ha) was 35, the “Crabgrass, Large plant response rating” value (large (Lg) crabgrass; 62 g ai/ha) was 98 and the “Plant response rating, Crabgrass, Large” value (large (Lg) crabgrass; 125 g ai/ha) was 100. The “Plant response rating, Crabgrass, Large” value (large (Lg) crabgrass; 250 g ai/ha) was 100, the “Goosegrass plant response rating” value (goosegrass; 16 g ai/ha) was 5 and the “Goosegrass plant response rating” value (goosegrass; 31 g ai/ha) was 50. For the same compound, the “Goosegrass plant response rating” value (goosegrass; 62 g ai/ha) was 65, the “Plant response rating, Goosegrass” value (goosegrass; 125 g ai/ha) was 98 and the “Plant response rating, Goosegrass” value (goosegrass; 250 g ai/ha) was 100. For the same compound, the “Sandbur plant response rating” value (sandbur; 16 g ai/ha) was 0, the “Sandbur plant response rating” value (sandbur; 31 g ai/ha) was 0 and the “Sandbur plant response rating” value (sandbur; 62 g ai/ha) was 10. For the same compound, the “Plant response rating, Sandbur” value (sandbur; 125 g ai/ha) was 35, the “Plant response rating, Sandbur” value (sandbur; 250 g ai/ha) was 80 and the “Nutsedge, Yellow plant response rating” value (yellow nutsedge; 16 g ai/ha) was 0. The “Nutsedge, Yellow plant response rating” value (yellow nutsedge; 31 g ai/ha) was 0, the “Nutsedge, Yellow plant response rating” value (yellow nutsedge; 62 g ai/ha) was 0 and the “Plant response rating, Nutsedge, Yellow” value (yellow nutsedge; 125 g ai/ha) was 25. The “Plant response rating, Nutsedge, Yellow” value (yellow nutsedge; 250 g ai/ha) was 50, the plant response (crop injury) rating, soybean, 0-100 scale at 31 g/ha (soybean; [1]) was 75% and the plant response (crop injury) rating, soybean, 0-100 scale at 62 g/ha (soybean; [2]) was 90%. For the same compound, the plant response (crop injury) rating, soybean, 0-100 scale at 125 g/ha (soybean; [3]) was 95%, the plant response (crop injury) rating, soybean, 0-100 scale at 16 g/ha (soybean; [4]) was 70% and the pest or weed control at 31 g/ha (fall panicum; [1]) was 10%. It also gave a pest or weed control at 62 g/ha (fall panicum; [2]) of 10%, a pest or weed control at 125 g/ha (fall panicum; [3]) of 40% and a pest or weed control at 16 g/ha (fall panicum; [4]) of 5%. The “Plant response rating, Ragweed” value (ragweed; [1]) was 50, the “Plant response rating, Ragweed” value (ragweed; [2]) was 55 and the “Plant response rating, Ragweed” value (ragweed; [3]) was 60. The “Plant response rating, Ragweed” value (ragweed; [4]) was 40, the pest or weed control at 31 g/ha (barnyardgrass; [1]) was 10% and the pest or weed control at 62 g/ha (barnyardgrass; [2]) was 20%. The pest or weed control at 125 g/ha (barnyardgrass; [3]) was 30% and the pest or weed control at 16 g/ha (barnyardgrass; [4]) was 5%.
Work on `N#Cc1cccc(Oc2ncc(F)cn2)c1-n1cc(C(F)(F)F)cn1` [Compound 79, 3-[(5-fluoro-2-pyrimidinyl)oxy]-2-[4-(trifluoromethyl)-1H-pyrazol-1-yl]benzonitrile] yielded a plant response (crop injury) rating, soybean, 0-100 scale at 31 g/ha (soybean; [1]) of 70%, a plant response (crop injury) rating, soybean, 0-100 scale at 62 g/ha (soybean; [2]) of 95% and a plant response (crop injury) rating, soybean, 0-100 scale at 125 g/ha (soybean; [3]) of 95%. The plant response (crop injury) rating, soybean, 0-100 scale at 16 g/ha (soybean; [4]) was 60%, the pest or weed control at 31 g/ha (fall panicum; [1]) was 35% and the pest or weed control at 62 g/ha (fall panicum; [2]) was 30%. For the same compound, the pest or weed control at 125 g/ha (fall panicum; [3]) was 30%, the pest or weed control at 16 g/ha (fall panicum; [4]) was 20% and the “Plant response rating, Ragweed” value (ragweed; [1]) was 40. For the same compound, the “Plant response rating, Ragweed” value (ragweed; [2]) was 50, the “Plant response rating, Ragweed” value (ragweed; [3]) was 60 and the “Plant response rating, Ragweed” value (ragweed; [4]) was 30. The pest or weed control at 31 g/ha (barnyardgrass; [1]) was 0%, the pest or weed control at 62 g/ha (barnyardgrass; [2]) was 10% and the pest or weed control at 125 g/ha (barnyardgrass; [3]) was 20%. For the same compound, the pest or weed control at 16 g/ha (barnyardgrass; [4]) was 0%.
In the case of `Clc1cnc(Oc2cccc(Cl)c2-n2cc(I)cn2)nc1` [Compound 181], the “Plant response rating, Soybean” value (soybean; [1]) is reported as 80, the “Plant response rating, Soybean” value (soybean; [2]) is reported as 90 and the “Plant response rating, Soybean” value (soybean; [3]) is reported as 95. For the same compound, the “Plant response rating, Soybean” value (soybean; [4]) was 50, the “Plant response rating, Panicum, Fall” value (fall panicum; [1]) was 20 and the “Plant response rating, Panicum, Fall” value (fall panicum; [2]) was 50. The “Plant response rating, Panicum, Fall” value (fall panicum; [3]) was 30, the “Plant response rating, Panicum, Fall” value (fall panicum; [4]) was 20 and the “Plant response rating, Ragweed” value (ragweed; [1]) was 25. The “Plant response rating, Ragweed” value (ragweed; [2]) was 30, the “Plant response rating, Ragweed” value (ragweed; [3]) was 50 and the “Plant response rating, Ragweed” value (ragweed; [4]) was 20. The “Plant response rating, Barnyardgrass” value (barnyardgrass; [1]) was 20, the “Plant response rating, Barnyardgrass” value (barnyardgrass; [2]) was 15 and the “Plant response rating, Barnyardgrass” value (barnyardgrass; [3]) was 25. For the same compound, the “Plant response rating, Barnyardgrass” value (barnyardgrass; [4]) was 10.
